# System: 616215-338-R-J1-PDC tumor spheroids, viability
# Assay: Anticancer human tumor 616215-338-R-J1-PDC patient-derived colon adenocarcinoma cell line growth inhibition [GQUAD]
# Conditions: spheroids with HUVEC and MSC; for IC50: curve of first compound; for viability, T/C: stronger effect = lower value
# Outline: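 Tumor cells were grown as complex spheroids with HUVEC endothelial cells and mesenchymal stem cells as stroma. G-quadruplex stabilizers were combined with targeted agents over half-log dilutions from near the clinical Cmax, or from 10 microM.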
# [1] = second compound 0.0316 µM, first compound 0.0316 µM
# [2] = second compound 0.0316 µM, first compound 0.1 µM
# [3] = second compound 0.0316 µM, first compound 0.316 µM
# [4] = second compound 0.0316 µM, first compound 1 µM
# [5] = second compound 0.0316 µM, first compound 3.16 µM
# [6] = second compound 0.0316 µM, first compound 10 µM
# [7] = second compound 0.1 µM, first compound 0.0316 µM
# [8] = second compound 0.1 µM, first compound 0.1 µM
# [9] = second compound 0.1 µM, first compound 0.316 µM
# [10] = second compound 0.1 µM, first compound 1 µM
# [11] = second compound 0.1 µM, first compound 3.16 µM
# [12] = second compound 0.1 µM, first compound 10 µM
# [13] = second compound 0.316 µM, first compound 0.0316 µM
# [14] = second compound 0.316 µM, first compound 0.1 µM
# [15] = second compound 0.316 µM, first compound 0.316 µM
# [16] = second compound 0.316 µM, first compound 1 µM
# [17] = second compound 0.316 µM, first compound 3.16 µM
# [18] = second compound 0.316 µM, first compound 10 µM
# [19] = second compound 1 µM, first compound 0.0316 µM
# [20] = second compound 1 µM, first compound 0.1 µM
# [21] = second compound 1 µM, first compound 0.316 µM
# [22] = second compound 1 µM, first compound 1 µM
# [23] = second compound 1 µM, first compound 3.16 µM
# [24] = second compound 1 µM, first compound 10 µM
# [25] = second compound 3.16 µM, first compound 0.0316 µM
# [26] = second compound 3.16 µM, first compound 0.1 µM
# [27] = second compound 3.16 µM, first compound 0.316 µM
# [28] = second compound 3.16 µM, first compound 1 µM
# [29] = second compound 3.16 µM, first compound 3.16 µM
# [30] = second compound 3.16 µM, first compound 10 µM
# [31] = second compound 10 µM, first compound 0.0316 µM
# [32] = second compound 10 µM, first compound 0.1 µM
# [33] = second compound 10 µM, first compound 0.316 µM
# [34] = second compound 10 µM, first compound 1 µM
# [35] = second compound 10 µM, first compound 3.16 µM
# [36] = second compound 10 µM, first compound 10 µM
# 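Also: spheroids exposed to agents for 7 days before readout.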
# 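For viability, T/C in this document: percent viability relative to DMSO vehicle control wells taken as 100%.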
structure (smiles),measurement,setting,value
CC1COCCN1c1cc(C2(S(C)(=N)=O)CC2)nc(-c2ccnc3[nH]ccc23)n1 (stereo not drawn) + Cc1cnc(CNC(=O)c2c(=O)c3ccc(N4CCCN(C)CC4)nc3n3c2sc2ccccc23)cn1,IC50,second compound 0.0316 µM,2380 nM
same,IC50,second compound 0.1 µM,1070 nM
same,IC50,second compound 0.316 µM,45.3 nM
same,IC50,second compound 1 µM,< 31.6 nM
same,IC50,second compound 3.16 µM,< 31.6 nM
same,IC50,second compound 10 µM,< 31.6 nM
same,"viability, T/C",[1],97.6%
same,"viability, T/C",[2],97.4%
same,"viability, T/C",[3],94.5%
same,"viability, T/C",[4],83.7%
same,"viability, T/C",[5],38.8%
same,"viability, T/C",[6],31.4%
same,"viability, T/C",[7],72.5%
same,"viability, T/C",[8],73.4%
same,"viability, T/C",[9],70%
same,"viability, T/C",[10],51.2%
same,"viability, T/C",[11],33.6%
same,"viability, T/C",[12],32.6%
same,"viability, T/C",[13],53.5%
same,"viability, T/C",[14],43.2%
same,"viability, T/C",[15],44.1%
same,"viability, T/C",[16],42.1%
same,"viability, T/C",[17],33.7%
same,"viability, T/C",[18],28.2%
same,"viability, T/C",[19],38.3%
same,"viability, T/C",[20],40.9%
same,"viability, T/C",[21],32%
same,"viability, T/C",[22],26.7%
same,"viability, T/C",[23],27.7%
same,"viability, T/C",[24],21.5%
same,"viability, T/C",[25],21.9%
same,"viability, T/C",[26],30.2%
same,"viability, T/C",[27],31.6%
same,"viability, T/C",[28],30.2%
same,"viability, T/C",[29],40.4%
same,"viability, T/C",[30],30%
same,"viability, T/C",[31],25.1%
same,"viability, T/C",[32],27.1%
same,"viability, T/C",[33],29.9%
same,"viability, T/C",[34],22.4%
same,"viability, T/C",[35],19.6%
same,"viability, T/C",[36],17.5%
CC1COCCN1c1cc(C2(O)CC3CCC(C2)O3)c2cnn(-c3ccn[nH]3)c2n1 (stereo not drawn) + Cc1cnc(CNC(=O)c2c(=O)c3ccc(N4CCCN(C)CC4)nc3n3c2sc2ccccc23)cn1,IC50,second compound 0.0316 µM,107 nM
same,IC50,second compound 0.1 µM,< 31.6 nM
same,IC50,second compound 0.316 µM,< 31.6 nM
same,IC50,second compound 1 µM,< 31.6 nM
same,IC50,second compound 3.16 µM,< 31.6 nM
same,IC50,second compound 10 µM,< 31.6 nM
same,"viability, T/C",[1],76.3%
same,"viability, T/C",[2],52.5%
same,"viability, T/C",[3],29.4%
same,"viability, T/C",[4],27.6%
same,"viability, T/C",[5],25.2%
same,"viability, T/C",[6],16.3%
same,"viability, T/C",[7],38%
same,"viability, T/C",[8],35.2%
same,"viability, T/C",[9],33%
same,"viability, T/C",[10],24.1%
same,"viability, T/C",[11],20.8%
same,"viability, T/C",[12],25.4%
same,"viability, T/C",[13],43%
same,"viability, T/C",[14],30.8%
same,"viability, T/C",[15],23.8%
same,"viability, T/C",[16],19.7%
same,"viability, T/C",[17],18.9%
same,"viability, T/C",[18],13.2%
same,"viability, T/C",[19],29.5%
same,"viability, T/C",[20],32.9%
same,"viability, T/C",[21],22.2%
same,"viability, T/C",[22],28.2%
same,"viability, T/C",[23],22.3%
same,"viability, T/C",[24],17.6%
same,"viability, T/C",[25],42.9%
same,"viability, T/C",[26],22%
same,"viability, T/C",[27],18.1%
same,"viability, T/C",[28],20.7%
same,"viability, T/C",[29],15.8%
same,"viability, T/C",[30],5.2%
same,"viability, T/C",[31],24.5%
same,"viability, T/C",[32],28.1%
same,"viability, T/C",[33],29.5%
same,"viability, T/C",[34],14.7%
same,"viability, T/C",[35],11.2%
same,"viability, T/C",[36],0.29%
C#Cc1c(F)ccc2cc(O)cc(-c3ncc4c(N5CC6CCC(C5)N6)nc(OCC56CCCN5CC(F)C6)nc4c3F)c12 (stereo not drawn) + CN(C)c1ccc(Nc2c3ccc(NC(=O)CCN4CCCC4)cc3nc3cc(NC(=O)CCN4CCCC4)ccc23)cc1,IC50,second compound 0.0316 µM,> 10000 nM
same,IC50,second compound 0.1 µM,9070 nM
same,IC50,second compound 0.316 µM,> 10000 nM
same,IC50,second compound 1 µM,9220 nM
same,IC50,second compound 3.16 µM,8570 nM
same,IC50,second compound 10 µM,3020 nM
same,"viability, T/C",[1],91.1%
same,"viability, T/C",[2],103%
same,"viability, T/C",[3],102%
same,"viability, T/C",[4],113%
same,"viability, T/C",[5],108%
same,"viability, T/C",[6],61.4%
same,"viability, T/C",[7],103%
same,"viability, T/C",[8],105%
same,"viability, T/C",[9],111%
same,"viability, T/C",[10],111%
same,"viability, T/C",[11],105%
same,"viability, T/C",[12],44.9%
same,"viability, T/C",[13],106%
same,"viability, T/C",[14],109%
same,"viability, T/C",[15],110%
same,"viability, T/C",[16],105%
same,"viability, T/C",[17],90.4%
same,"viability, T/C",[18],64.3%
same,"viability, T/C",[19],109%
same,"viability, T/C",[20],100%
same,"viability, T/C",[21],106%
same,"viability, T/C",[22],105%
same,"viability, T/C",[23],98%
same,"viability, T/C",[24],46.3%
same,"viability, T/C",[25],109%
same,"viability, T/C",[26],86.8%
same,"viability, T/C",[27],100%
same,"viability, T/C",[28],93.5%
same,"viability, T/C",[29],106%
same,"viability, T/C",[30],42.3%
same,"viability, T/C",[31],99.4%
same,"viability, T/C",[32],79.6%
same,"viability, T/C",[33],94.2%
same,"viability, T/C",[34],67.5%
same,"viability, T/C",[35],50.1%
same,"viability, T/C",[36],22.4%
CC1COCCN1c1cc(C2(O)CC3CCC(C2)O3)c2cnn(-c3ccn[nH]3)c2n1 (stereo not drawn) + Cc1[nH]c2ccc(F)cc2c1-c1nc2c3cccnc3c3ncccc3c2[nH]1,IC50,second compound 0.0316 µM,236 nM
same,IC50,second compound 0.1 µM,226 nM
same,IC50,second compound 0.316 µM,234 nM
same,IC50,second compound 1 µM,222 nM
same,IC50,second compound 3.16 µM,176 nM
same,IC50,second compound 10 µM,120 nM
same,"viability, T/C",[1],95.4%
same,"viability, T/C",[2],78%
same,"viability, T/C",[3],40.1%
same,"viability, T/C",[4],30.6%
same,"viability, T/C",[5],28.8%
same,"viability, T/C",[6],25.9%
same,"viability, T/C",[7],90.2%
same,"viability, T/C",[8],83.9%
same,"viability, T/C",[9],35.6%
same,"viability, T/C",[10],31.1%
same,"viability, T/C",[11],23.8%
same,"viability, T/C",[12],17%
same,"viability, T/C",[13],91.8%
same,"viability, T/C",[14],61.5%
same,"viability, T/C",[15],42.4%
same,"viability, T/C",[16],40%
same,"viability, T/C",[17],26.1%
same,"viability, T/C",[18],19.9%
same,"viability, T/C",[19],99.5%
same,"viability, T/C",[20],59.7%
same,"viability, T/C",[21],47.4%
same,"viability, T/C",[22],32.7%
same,"viability, T/C",[23],23.2%
same,"viability, T/C",[24],19.3%
same,"viability, T/C",[25],92.4%
same,"viability, T/C",[26],71.8%
same,"viability, T/C",[27],27.2%
same,"viability, T/C",[28],31.7%
same,"viability, T/C",[29],25.7%
same,"viability, T/C",[30],16.4%
same,"viability, T/C",[31],88.4%
same,"viability, T/C",[32],50.8%
same,"viability, T/C",[33],36.1%
same,"viability, T/C",[34],30%
same,"viability, T/C",[35],20.8%
same,"viability, T/C",[36],20.2%
